# Measurements as given in patent US8883782B2, “Spiro-tetracyclic ring compounds as beta-secretase modulators and methods of use” (Amgen Inc., priority 2010, dated 2014).
# Where two headings read alike, the source gives them in different places.
# What was measured:
# [1] = molecular target: Beta Secretase enzyme (BACE) (Homo sapiens, UniProt P56817); test: In vitro enzymatic BACE FRET (fluorescence resonance energy transfer) assay; type: biochemical; conditions: average IC50, enzyme assay; read-out: BACE 1 FRET assay
# Beta Secretase enzyme (BACE), sequence (P56817 46-501, species assumed): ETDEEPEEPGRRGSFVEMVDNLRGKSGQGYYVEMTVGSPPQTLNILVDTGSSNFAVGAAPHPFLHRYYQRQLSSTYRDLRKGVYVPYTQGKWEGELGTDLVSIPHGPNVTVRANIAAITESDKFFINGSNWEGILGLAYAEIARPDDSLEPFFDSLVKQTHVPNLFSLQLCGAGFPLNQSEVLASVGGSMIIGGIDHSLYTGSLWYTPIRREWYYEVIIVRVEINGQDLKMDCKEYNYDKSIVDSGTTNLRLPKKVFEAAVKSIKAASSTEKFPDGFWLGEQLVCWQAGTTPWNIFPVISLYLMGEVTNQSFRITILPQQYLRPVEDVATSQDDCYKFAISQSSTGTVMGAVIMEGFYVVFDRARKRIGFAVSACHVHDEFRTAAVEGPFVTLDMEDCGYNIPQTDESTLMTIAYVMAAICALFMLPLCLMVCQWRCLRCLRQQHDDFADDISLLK
# In short: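 Run in 0.05 M acetate pH 4.2 with 10% DMSO final and 100 uM genapol; started by adding 50 nM FRET peptide substrate (fluorophore and quencher flanking the cleavage site), incubated one hour, then stopped with Tris to neutral pH before reading fluorescence.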
# [2] = system: Aβ40 in conditioned medium of cells stably expressing Amyloid Precursor Protein (APP); test: In vitro BACE cell-based assay (Aβ40 in conditioned medium, sandwich ELISA); conditions: read-out: HEK cell assay
# In short: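 Conditioned medium from stably APP-expressing cells treated with compound dose series is assayed for Aβ40 by sandwich ELISA with time-resolved fluorescence detection. IC50 is calculated from percent inhibition of Aβ40 against compound concentration.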
# [3] = Homo sapiens, HEK293, average IC50, HEK cells
# [4] = Homo sapiens, HEK293, average IC50
Structure (SMILES),IC50 [1] [µM],"IC50 [2, 3] [µM]","IC50 [2, 4] [µM]",IC50 ([2]; average IC50) [µM]
"C[Si](C)(C)c1cc2c(nc1F)Oc1ccc(Br)cc1[C@@]21COC(N)=N1 [Example 90, (5S)-7-bromo-2-fluoro-3-(trimethylsilyl)spiro[chromeno[2,3-b]pyridine-5,4′-[1,3]oxazol]-2′-amine]",0.862,,10,
"Cc1cnc(F)c(-c2ccc3c(c2)[C@@]2(COC(N)=N2)c2cc(-c4ccnc(F)c4)ncc2O3)c1 [Example 422, (5S)-7-(2-fluoro-5-methyl-3-pyridinyl)-3-(2-fluoro-4-pyridinyl)spiro[chromeno[2,3-c]pyridine-5,4′-[1,3]oxazol]-2′-amine]",0.0021,0.0232,,
"COCCN(C)c1cc(F)c2c(c1)[C@]1(COC(N)=N1)c1cc(-c3cccnc3F)ccc1O2 [Example 207, (4S)-4′-fluoro-7′-(2-fluoro-3-pyridinyl)-N~2~′-(2-methoxyethyl)-N~2~′-methylspiro[1,3-oxazole-4,9′-xanthene]-2,2′-diamine]",0.0075,,0.0314,
"CC1(C#Cc2cnc3c(c2)[C@]2(COC(N)=N2)c2cc(-c4ccc(F)c(C#N)c4)ccc2O3)COC1 [Example 787, 5-((5S)-2′-amino-3-((3-methyl-3-oxetanyl)ethynyl)spiro[chromeno[2,3-b]pyridine-5,4′-[1,3]oxazol]-7-yl)-2-fluorobenzonitrile]",0.0056,,0.044,
"NC1=N[C@@]2(CO1)c1cc(-c3cccnc3F)ccc1Oc1c2ccnc1F [Example 658, (5S)-1-fluoro-7-(2-fluoro-3-pyridinyl)spiro[chromeno[2,3-c]pyridine-5,4′-[1,3]oxazol]-2′-amine]",0.0272,0.846,,
"NC1=N[C@@]2(CO1)c1cc(-c3cccnc3F)ccc1Oc1c(F)cc(N3CC4(CCCO4)C3)cc12 [Example 855, (4S)-4′-fluoro-7′-(2-fluoro-3-pyridinyl)-2′-(5-oxa-2-azaspiro[3.4]oct-2-yl)spiro[1,3-oxazole-4,9′-xanthen]-2-amine]",0.0007,0.002,,
"Cn1cc(-c2cccc(-c3ccc4c(c3)[C@@]3(COC(N)=N3)c3cc(C5=CCOCC5)ncc3O4)c2)cn1 [Example 243, (5S)-3-(3,6-dihydro-2H-pyran-4-yl)-7-(3-(1-methyl-1H-pyrazol-4-yl)phenyl)spiro[chromeno[2,3-c]pyridine-5,4′-[1,3]oxazol]-2′-amine]",0.0195,,0.287,
"N#Cc1cccc(-c2ccc3c(c2)[C@@]2(COC(N)=N2)c2cc(C4=CCOCC4)ncc2O3)c1 [Example 143, 3-((5S)-2′-amino-3-(3,6-dihydro-2H-pyran-4-yl)spiro[chromeno[2,3-c]pyridine-5,4′-[1,3]oxazol]-7-yl)benzonitrile]",0.0011,,0.0094,
"N#Cc1cccc(-c2ccc3c(c2)[C@@]2(COC(N)=N2)c2cc(C4=CCOCC4)cnc2O3)c1 [Example 169, 3-((5S)-2′-amino-3-(3,6-dihydro-2H-pyran-4-yl)spiro[chromeno[2,3-b]pyridine-5,4′-[1,3]oxazol]-7-yl)benzonitrile]",0.0013,,0.0045,
"NC1=N[C@]2(CS1)c1cc(-c3cccnc3)c(F)cc1Oc1c(F)cc(C3=CCOCC3)cc12 [Example 882, (4R)-7′-(3,6-dihydro-2H-pyran-4-yl)-3′,5′-difluoro-2′-(3-pyridinyl)spiro[1,3-thiazole-4,9′-xanthen]-2-amine]",0.617,≥ 10,,
"CC1(C#Cc2cnc3c(c2)[C@]2(COC(N)=N2)c2cc(-c4cnccc4F)c(F)cc2O3)COC1 [Example 621, (5S)-8-fluoro-7-(4-fluoro-3-pyridinyl)-3-((3-methyl-3-oxetanyl)ethynyl)spiro[chromeno[2,3-b]pyridine-5,4′-[1,3]oxazol]-2′-amine]",0.0006,0.005,,

# The remaining lines, values ahead:
IC50 [1] [µM],"IC50 [2, 3] [µM]","IC50 [2, 4] [µM]",IC50 ([2]; average IC50) [µM],Structure (SMILES)
0.0004,0.008,,,"CC1(COc2cc(F)c3c(c2)[C@]2(CSC(N)=N2)c2cc(-c4cccnc4)c(F)cc2O3)COC1 [Example 878, (4S)-3′,5′-difluoro-7′-((3-methyl-3-oxetanyl)methoxy)-2′-(3-pyridinyl)spiro[1,3-thiazole-4,9′-xanthen]-2-amine]"
0.0003,0.006,,,"NC1=N[C@@]2(CO1)c1cc(-c3cccnc3F)ccc1Oc1c2cc(N2CCC(F)(F)CC2)nc1F [Example 698, (5S)-3-(4,4-difluoro-1-piperidinyl)-1-fluoro-7-(2-fluoro-3-pyridinyl)spiro[chromeno[2,3-c]pyridine-5,4′-[1,3]oxazol]-2′-amine]"
0.0537,,0.326,,"CCn1cc(-c2cccc(-c3ccc4c(c3)[C@@]3(COC(N)=N3)c3cc(C5=CCOCC5)ncc3O4)c2)cn1 [Example 244, (5S)-3-(3,6-dihydro-2H-pyran-4-yl)-7-(3-(1-ethyl-1H-pyrazol-4-yl)phenyl)spiro[chromeno[2,3-c]pyridine-5,4′-[1,3]oxazol]-2′-amine]"
0.393,,2.1,,"COC(C)(C)COc1cnc2c(c1)[C@@]1(COC(N)=N1)c1cc(-c3cccc(C(F)(F)F)c3)ccc1O2 [Example 316, (5R)-3-(2-methoxy-2-methylpropoxy)-7-(3-(trifluoromethyl)phenyl)spiro[chromeno[2,3-b]pyridine-5,4′-[1,3]oxazol]-2′-amine]"
0.0022,0.0227,,,"COc1ccc(Cl)c(-c2ccc3c(c2)[C@@]2(COC(N)=N2)c2cc(C4=CCOCC4)cnc2O3)c1 [Example 499, (5S)-7-(2-chloro-5-methoxyphenyl)-3-(3,6-dihydro-2H-pyran-4-yl)spiro[chromeno[2,3-b]pyridine-5,4′-[1,3]oxazol]-2′-amine]"
0.0542,,0.291,,"Cc1cnccc1-c1cc2c(cn1)Oc1ccc(-c3cccnc3F)cc1[C@@]21COC(N)=N1 [Example 246, (5S)-7-(2-fluoro-3-pyridinyl)-3-(3-methyl-4-pyridinyl)spiro[chromeno[2,3-c]pyridine-5,4′-[1,3]oxazol]-2′-amine]"
0.0013,,0.0074,,"Cn1cc(-c2cc3c(cn2)Oc2ccc(-c4cncc(Cl)c4)cc2[C@@]32COC(N)=N2)cn1 [Example 232, (5S)-7-(5-chloro-3-pyridinyl)-3-(1-methyl-1H-pyrazol-4-yl)spiro[chromeno[2,3-c]pyridine-5,4′-[1,3]oxazol]-2′-amine]"
18.1,,≥ 10,,"COc1cc2c(c(F)c1F)Oc1ccc(Br)cc1[C@]21COC(N)=N1 [Example 1002, (4R)-7′-bromo-3′,4′-difluoro-2′-methoxyspiro[1,3-oxazole-4,9′-xanthen]-2-amine]"
0.458,0.402,,,"NC1=N[C@@]2(CO1)c1cc(-c3ccc(N4CCC(F)(F)C4)nc3)ccc1Oc1cnc(N3CCC(F)(F)C3)cc12 [Example 423, (5S)-3-(3,3-difluoro-1-pyrrolidinyl)-7-(6-(3,3-difluoro-1-pyrrolidinyl)-3-pyridinyl)spiro[chromeno[2,3-c]pyridine-5,4′-[1,3]oxazol]-2′-amine]"
0.0022,0.027,,,"NC1=N[C@@]2(CO1)c1cc(-c3cc(Cl)ccc3Cl)ccc1Oc1ncc(C3=CCOCC3)cc12 [Example 501, (5S)-7-(2,5-dichlorophenyl)-3-(3,6-dihydro-2H-pyran-4-yl)spiro[chromeno[2,3-b]pyridine-5,4′-[1,3]oxazol]-2′-amine]"
0.0031,,0.0143,,"NC1=N[C@@]2(CO1)c1cc(C#CC3CC3)ccc1Oc1ncc(N3CCC(F)(F)C3)cc12 [Example 178, (5S)-7-(cyclopropylethynyl)-3-(3,3-difluoro-1-pyrrolidinyl)spiro[chromeno[2,3-b]pyridine-5,4′-[1,3]oxazol]-2′-amine]"
0.0033,,,0.923,"COCC1SC(N)=NC12c1cc(-c3cccnc3F)ccc1Oc1c(F)cc(OC)cc12 [Example 1089, (4S/R,5S)-4′-fluoro-7′-(2-fluoropyridin-3-yl)-2′-methoxy-5-(methoxymethyl)-5H-spiro[thiazole-4,9′-xanthen]-2-amine]"
0.0076,0.0208,,,"NC1=N[C@@]2(CO1)c1cc(-c3cccnc3)ccc1Oc1cnc(N3CC[C@H](F)C3)cc12 [Example 412, (5S)-3-((3S)-3-fluoro-1-pyrrolidinyl)-7-(3-pyridinyl)spiro[chromeno[2,3-c]pyridine-5,4′-[1,3]oxazol]-2′-amine]"
0.469,,≥ 10,,"COc1nc(Cl)cc2c1Oc1ccc(-c3cccnc3)cc1[C@@]21COC(N)=N1 [Example 830, (5S)-3-chloro-1-methoxy-7-(3-pyridinyl)spiro[chromeno[2,3-c]pyridine-5,4′-[1,3]oxazol]-2′-amine]"
0.0043,,0.0264,,"CC1(C)C[C@@H](c2cc3c(cn2)Oc2ccc(-c4cccnc4F)cc2[C@@]32COC(N)=N2)CCO1 [Example 378, (5S)-3-((4S)-2,2-dimethyltetrahydro-2H-pyran-4-yl)-7-(2-fluoro-3-pyridinyl)spiro[chromeno[2,3-c]pyridine-5,4′-[1,3]oxazol]-2′-amine]"
0.0008,,0.0078,,"NC1=N[C@@]2(CO1)c1cc(-c3cccnc3F)ccc1Oc1c(F)cc(N3CCC4(CC3)COC4)cc12 [Example 189, (4S)-4′-fluoro-7′-(2-fluoro-3-pyridinyl)-2′-(2-oxa-7-azaspiro[3.5]non-7-yl)spiro[1,3-oxazole-4,9′-xanthen]-2-amine]"
0.0223,,0.374,,"NC1=N[C@@]2(CO1)c1cc(Oc3cc(Cl)ccn3)ccc1Oc1c(F)cc(N3CCOCC3)cc12 [Example 1062, (4S)-7′-((4-chloro-2-pyridinyl)oxy)-4′-fluoro-2′-(4-morpholinyl)spiro[1,3-oxazole-4,9′-xanthen]-2-amine]"
